Measurements from patent publication US20230217975A1, “PERFUME COMPOSITION” (AJINOMOTO CO., INC., priority 2020, published 2023).

Tests used:
panel of 4 experts [1] = assay: Sensory evaluation of strength of mouth-coating feel in mayonnaise (Examples 1, 5, 6); format: in vivo; details: for strength of mouth-coating feel, single component compound (II) / strength of mouth-coating feel, two components compound (II) and cyclotene / strength of mouth-coating feel, two components compound (II) and β-caryophyllene oxide / strength of mouth-coating feel, three components compound (II), β-caryophyllene oxide, and cyclotene: compound (II) 10 weight ppb; for strength of mouth-coating feel, two components compound (II) and cyclotene / strength of mouth-coating feel, three components compound (II), β-caryophyllene oxide, and cyclotene: cyclotene 500 weight ppb; for strength of mouth-coating feel, two components compound (II) and β-caryophyllene oxide / strength of mouth-coating feel, three components compound (II), β-caryophyllene oxide, and cyclotene: β-caryophyllene oxide 500 weight ppb; for strength of mouth-coating feel, no use of compound (II), single component: 500 weight ppb as printed in b569; as to strength of mouth-coating feel, three components compound (II), β-caryophyllene oxide, and cyclotene: tested at 0.01 µg/mL; as to strength of mouth-coating feel, two components compound (II) and cyclotene: tested at 0.01 µg/mL; as to strength of mouth-coating feel, two components compound (II) and β-caryophyllene oxide: tested at 0.01 µg/mL
panel of 4 experts [2] = assay: as above; format: in vivo; details: for strength of mouth-coating feel, single component compound (I) / strength of mouth-coating feel, two components compound (I) and furfural / strength of mouth-coating feel, two components compound (I) and β-caryophyllene oxide / strength of mouth-coating feel, three components compound (I), β-caryophyllene oxide and furfural: compound (I) 10 weight ppb; for strength of mouth-coating feel, two components compound (I) and furfural / strength of mouth-coating feel, three components compound (I), β-caryophyllene oxide and furfural: furfural 500 weight ppb; for strength of mouth-coating feel, two components compound (I) and β-caryophyllene oxide / strength of mouth-coating feel, three components compound (I), β-caryophyllene oxide and furfural: β-caryophyllene oxide 500 weight ppb; for strength of mouth-coating feel, no use of compound (I), single component: 500 weight ppb
Text: As a positive control, general commercially available mayonnaise (manufactured by Ajinomoto Co., Inc., trade name “Pure Select (registered trade mark) mayonnaise”, oil and fat content: 73%) was used. As a negative control (NC), commercially available mayonnaise (manufactured by Ajinomoto Co., Inc., trade name “Pure Select (registered trade mark) KOKUUMA (registered trade mark) 65% Calorie Cut”, oil and fat content: 23%) with a smaller oil and fat content as compared with positive control mayonnaise was used.
Experimental samples were produced by adding at least one compound selected from cyclotene, β-caryophyllene oxide, and furfural to the aforementioned commercially available mayonnaise (manufactured by Ajinomoto Co., Inc., trade name “Pure Select (registered trade mark) KOKUUMA (registered trade mark) 65% Calorie Cut”, oil and fat content: 23%) used as the negative control, such that the concentration of each compound in the food (mayonnaise) was a concentration shown in the following Tables 1 to 3 (in the following, each experimental sample is also to be referred to as “sample of experimental plot 1-1” to “sample of experimental plot 1-39”).
Cyclotene, octanoic acid, and isovaleric acid were added to the aforementioned commercially available mayonnaise (manufactured by Ajinomoto Co., Inc., trade name “Pure Select (registered trade mark) KOKUUMA (registered trade mark) 65% Calorie Cut”, oil and fat content: 23%) used as the negative control, such that the concentration of cyclotene in the food (mayonnaise) was 100 weight ppb, the concentration of octanoic acid was 200 weight ppb, and the concentration of isovaleric acid was 100 weight ppb to produce the sample of control plot 1.
A sensory evaluation was performed on the strength of mouth-coating feel of experimental samples, and the presence or absence of off-flavor.
For the evaluation of a mouth-coating feel, a panel of 4 experts ate each mayonnaise of positive control, negative control and experimental sample (samples of experimental plots 1-1 to 1-39 and control plot 1), and graded each experimental sample in 0.1 point increments (non-blind) in the range of 0.0 to 5.0 points, with the positive control being 5.0 points and the negative control being 0.0 point, by averaging the obtained scores of the panel of 4 experts. When the score was 1.0 or more, it was determined that there was an effect of enhancing the mouth-coating feel. The panel of 4 experts was trained in advance so that they have common understanding as to the degree of change in the mouth-coating feel that is required to change the score by 0.1 point.
Experimental samples were produced by adding at least one compound selected from compound (I) shown in the following Table 8 (any of cyclotene, γ-butyrolactone, 2-methyltetrahydrofuran-3-one, α-angelicalactone, maltol, 3-methyl-1,2-cyclohexanedione, γ-dodecanolactone, 5-dodecanolide, 4,5-dimethyl-3-hydroxy-2,5-dihydrofuran-2-one, and D-camphor), β-caryophyllene oxide, and furfural to the aforementioned commercially available mayonnaise (manufactured by Ajinomoto Co., Inc., trade name “Pure Select (registered trade mark) KOKUUMA (registered trade mark) 65% Calorie Cut”, oil and fat content: 23%) used as the negative control. Compound (I) was added such that the concentration of compound (I) in the food (mayonnaise) was 10 weight ppb, β-caryophyllene oxide was added such that the concentration of β-caryophyllene oxide in the food (mayonnaise) was 500 weight ppb, and furfural was added such that the concentration of furfural in the food (mayonnaise) was 500 weight ppb.
A sensory evaluation was performed on the strength of mouth-coating feel of experimental samples in the same manner as in Example 1.

Row | SMILES | strength of mouth-coating feel, single component compound (II) (panel of 4 experts [1]) | strength of mouth-coating feel, two components compound (II) and cyclotene (panel of 4 experts [1]) | strength of mouth-coating feel, two components compound (II) and β-caryophyllene oxide (panel of 4 experts [1]) | strength of mouth-coating feel, three components compound (II), β-caryophyllene oxide, and cyclotene (panel of 4 experts [1]) | strength of mouth-coating feel, single component compound (I) (panel of 4 experts [2]) | strength of mouth-coating feel, two components compound (I) and furfural (panel of 4 experts [2]) | strength of mouth-coating feel, two components compound (I) and β-caryophyllene oxide (panel of 4 experts [2]) | strength of mouth-coating feel, three components compound (I), β-caryophyllene oxide and furfural (panel of 4 experts [2]) | strength of mouth-coating feel, no use of compound (II), single component (panel of 4 experts [1]) | strength of mouth-coating feel, no use of compound (I), single component (panel of 4 experts [2])
1 | CC(=O)c1ccco1 [2-acetylfuran] | 0.2 | 2.4 | 2.0 | 4.3 | – | – | – | – | – | –
2 | CCCCCCCC1CCCC(=O)O1 (stereo not shown) [5-dodecanolide] | – | – | – | – | 0.5 | 2.4 | 3.2 | 4.2 | – | –
3 | CC1(C)[C@@H]2CC[C@@]1(C)C(=O)C2 [D-camphor] | – | – | – | – | 0.4 | 2.6 | 3.1 | 4.2 | – | –
4 | C=C1CC[C@H]2O[C@]2(C)CC[C@@H]2[C@@H]1CC2(C)C [β-caryophyllene oxide] | – | – | – | – | – | – | – | – | 1.5 | 1.5
5 | CC1=C(O)C(=O)CC1 [cyclotene] | – | – | – | – | 0.5 | 2.5 | 3.2 | 4.7 | 0.5 | –
6 | O=Cc1ccco1 [furfural] | 0.3 | 2.2 | 2.2 | 4.7 | – | – | – | – | – | 0.3
7 | O=C1CCCO1 [γ-butyrolactone] | – | – | – | – | 0.5 | 2.2 | 3.2 | 4.2 | – | –
8 | CC(=O)c1ccc(C)o1 [2-acetyl-5-methylfuran] | 0.2 | 2.2 | 2.2 | 4.4 | – | – | – | – | – | –
9 | OCc1ccco1 [furfuryl alcohol] | 0.1 | 2.2 | 2.0 | 4.1 | – | – | – | – | – | –
10 | CCC(=O)OCc1ccco1 [furfuryl propionate] | 0.2 | 2.4 | 2.2 | 4.3 | – | – | – | – | – | –
11 | CC1=CCC(=O)O1 [α-angelicalactone] | – | – | – | – | 0.5 | 2.3 | 2.9 | 4.2 | – | –
12 | CC(=O)c1cc(C)oc1C [3-acetyl-2,5-dimethylfuran] | 0.2 | 2.5 | 2.0 | 4.2 | – | – | – | – | – | –
13 | CC1=C(O)C(=O)OC1C (stereo not shown) [4,5-dimethyl-3-hydroxy-2,5-dihydrofuran-2-one] | – | – | – | – | 0.3 | 2.3 | 2.9 | 4.2 | – | –
14 | c1coc(Cn2cccc2)c1 [1-furfurylpyrrole] | 0.2 | 2.4 | 2.2 | 4.1 | – | – | – | – | – | –
15 | CC1CCCC(=O)C1=O (stereo not shown) [3-methyl-1,2-cyclohexanedione] | – | – | – | – | 0.5 | 2.3 | 3.0 | 4.4 | – | –
16 | Cc1ccc(C=O)o1 [5-methylfurfural] | 0.2 | 2.4 | 2.1 | 4.2 | – | – | – | – | – | –
17 | O=Cc1ccc(CO)o1 [5-(hydroxymethyl)furfural] | 0.2 | 2.5 | 2.2 | 4.3 | – | – | – | – | – | –
18 | CC1OCCC1=O (stereo not shown) [2-methyltetrahydrofuran-3-one] | – | – | – | – | 0.5 | 2.4 | 3.2 | 4.2 | – | –
19 | Cc1occc(=O)c1O [maltol] | – | – | – | – | 0.4 | 2.3 | 3.0 | 4.2 | – | –
